IC50 and inhibition data for two molecules are collected here from ChEMBL document CHEMBL5331077, “Combining pharmacophore models derived from DNA-encoded chemical libraries with structure-based exploration to predict Tankyrase 1 inhibitors” (Eur J Med Chem, 2023).

Activity calls are given as the source filed them. The rule behind the calls is not given here.

The target of assay [1] is T1, Poly [ADP-ribose] polymerase tankyrase-1 (Homo sapiens, UniProt O95271).
T1 sequence (O95271 whole entry): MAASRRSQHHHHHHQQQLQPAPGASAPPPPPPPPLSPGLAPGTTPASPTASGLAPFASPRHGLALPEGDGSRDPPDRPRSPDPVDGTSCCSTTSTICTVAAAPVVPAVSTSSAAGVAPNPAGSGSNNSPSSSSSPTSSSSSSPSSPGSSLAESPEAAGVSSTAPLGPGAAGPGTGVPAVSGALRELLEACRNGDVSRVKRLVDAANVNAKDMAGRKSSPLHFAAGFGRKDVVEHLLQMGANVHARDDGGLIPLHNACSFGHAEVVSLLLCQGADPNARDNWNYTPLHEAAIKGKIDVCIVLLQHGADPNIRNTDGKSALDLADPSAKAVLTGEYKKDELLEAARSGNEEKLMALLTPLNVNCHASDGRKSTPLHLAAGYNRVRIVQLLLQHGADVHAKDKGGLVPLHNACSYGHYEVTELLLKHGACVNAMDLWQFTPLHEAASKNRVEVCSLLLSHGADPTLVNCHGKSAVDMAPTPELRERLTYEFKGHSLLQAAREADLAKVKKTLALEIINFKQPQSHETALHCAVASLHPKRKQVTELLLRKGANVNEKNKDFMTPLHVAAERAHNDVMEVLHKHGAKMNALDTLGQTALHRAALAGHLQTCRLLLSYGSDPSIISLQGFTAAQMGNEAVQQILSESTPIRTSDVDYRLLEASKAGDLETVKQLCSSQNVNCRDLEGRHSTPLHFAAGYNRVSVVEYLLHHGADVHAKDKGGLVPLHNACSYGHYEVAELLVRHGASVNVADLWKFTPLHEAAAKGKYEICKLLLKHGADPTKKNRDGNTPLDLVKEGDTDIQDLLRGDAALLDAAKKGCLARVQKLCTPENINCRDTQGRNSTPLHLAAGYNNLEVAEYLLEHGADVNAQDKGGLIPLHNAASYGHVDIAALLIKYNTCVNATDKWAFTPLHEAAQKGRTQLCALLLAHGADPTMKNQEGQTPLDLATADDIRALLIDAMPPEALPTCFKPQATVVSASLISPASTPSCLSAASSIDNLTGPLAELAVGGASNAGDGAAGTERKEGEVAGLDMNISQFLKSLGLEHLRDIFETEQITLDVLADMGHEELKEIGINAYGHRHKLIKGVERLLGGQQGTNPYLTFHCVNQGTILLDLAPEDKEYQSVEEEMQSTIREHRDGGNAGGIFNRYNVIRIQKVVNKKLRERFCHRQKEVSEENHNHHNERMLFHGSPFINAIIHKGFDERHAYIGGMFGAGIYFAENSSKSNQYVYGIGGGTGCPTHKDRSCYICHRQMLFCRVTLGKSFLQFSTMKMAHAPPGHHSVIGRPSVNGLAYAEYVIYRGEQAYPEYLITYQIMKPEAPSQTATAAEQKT
As to the kind of experiment: Inhibition of TNKS1 (unknown origin) using biotinylated NAD as substrate preincubated for 30 mins followed by substrate addition and measured after 1 hr by BioTek synergy 2 microplate reader analysis.

For assay [2], the target named is T2, Protein mono-ADP-ribosyltransferase TIPARP (Homo sapiens) (UniProt Q7Z3E1).
T2 sequence (whole entry): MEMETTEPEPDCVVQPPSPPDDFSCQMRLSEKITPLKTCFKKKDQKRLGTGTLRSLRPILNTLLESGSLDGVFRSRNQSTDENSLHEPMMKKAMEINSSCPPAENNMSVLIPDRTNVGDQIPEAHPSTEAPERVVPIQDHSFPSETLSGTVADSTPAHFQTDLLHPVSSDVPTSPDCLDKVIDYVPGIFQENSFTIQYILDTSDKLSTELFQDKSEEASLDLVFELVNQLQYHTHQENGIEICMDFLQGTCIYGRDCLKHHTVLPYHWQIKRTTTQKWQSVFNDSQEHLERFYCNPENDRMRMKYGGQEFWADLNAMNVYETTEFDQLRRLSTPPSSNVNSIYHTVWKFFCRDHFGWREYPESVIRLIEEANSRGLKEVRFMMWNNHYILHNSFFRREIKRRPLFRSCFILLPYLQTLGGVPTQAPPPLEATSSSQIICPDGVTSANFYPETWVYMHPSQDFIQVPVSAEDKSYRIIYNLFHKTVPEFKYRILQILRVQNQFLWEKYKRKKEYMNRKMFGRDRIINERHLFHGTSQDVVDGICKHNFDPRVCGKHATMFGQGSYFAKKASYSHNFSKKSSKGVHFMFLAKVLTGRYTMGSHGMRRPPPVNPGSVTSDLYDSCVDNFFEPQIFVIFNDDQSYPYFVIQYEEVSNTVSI
The assay is described as follows: Inhibition of PARP7 (unknown origin).

The target of assay [3] is T3, Protein mono-ADP-ribosyltransferase PARP11 (Homo sapiens) (UniProt Q9NR21).
T3 sequence (whole entry): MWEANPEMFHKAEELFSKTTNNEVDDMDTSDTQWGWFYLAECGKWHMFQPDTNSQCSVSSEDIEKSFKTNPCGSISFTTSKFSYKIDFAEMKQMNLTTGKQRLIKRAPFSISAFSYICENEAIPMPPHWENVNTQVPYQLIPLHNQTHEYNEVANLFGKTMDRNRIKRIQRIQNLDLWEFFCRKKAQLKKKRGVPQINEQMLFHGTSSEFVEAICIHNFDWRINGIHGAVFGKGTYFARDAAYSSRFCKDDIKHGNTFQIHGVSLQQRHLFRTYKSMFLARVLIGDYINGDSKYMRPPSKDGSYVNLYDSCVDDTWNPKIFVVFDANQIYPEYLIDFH
The assay is described as follows: Inhibition of PARP11 (unknown origin).

Assay [4] deals with T4, Protein mono-ADP-ribosyltransferase PARP12 (Homo sapiens) (UniProt Q9H0J9).
T4 sequence (whole entry): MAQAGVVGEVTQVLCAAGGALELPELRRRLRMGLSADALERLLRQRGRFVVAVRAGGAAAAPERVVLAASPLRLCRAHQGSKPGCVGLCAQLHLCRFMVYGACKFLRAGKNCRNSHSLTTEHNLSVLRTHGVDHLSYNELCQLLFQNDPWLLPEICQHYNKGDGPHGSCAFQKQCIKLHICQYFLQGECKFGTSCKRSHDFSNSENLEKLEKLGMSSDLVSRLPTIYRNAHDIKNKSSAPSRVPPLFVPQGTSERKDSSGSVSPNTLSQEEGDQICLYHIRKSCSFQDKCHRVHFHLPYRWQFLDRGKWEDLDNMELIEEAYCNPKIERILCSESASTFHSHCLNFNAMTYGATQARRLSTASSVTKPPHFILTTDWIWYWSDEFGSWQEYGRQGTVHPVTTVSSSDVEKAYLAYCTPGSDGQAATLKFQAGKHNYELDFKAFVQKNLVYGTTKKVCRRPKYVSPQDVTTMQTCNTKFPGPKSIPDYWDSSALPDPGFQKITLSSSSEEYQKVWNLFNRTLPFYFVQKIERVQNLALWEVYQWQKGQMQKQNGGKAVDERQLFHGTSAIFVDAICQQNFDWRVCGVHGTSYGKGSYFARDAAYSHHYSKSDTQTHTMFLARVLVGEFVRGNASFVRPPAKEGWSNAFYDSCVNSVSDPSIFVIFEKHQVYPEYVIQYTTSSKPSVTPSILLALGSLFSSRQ
The assay is described as follows: Inhibition of PARP12 (unknown origin).

As usually defined, the IC50 is the concentration that gives 50% inhibition.

Consider `Cc1cc(OCC(=O)NCCNC(=O)c2cccc(COc3ccccc3C(N)=O)c2)c2c3c(c(=O)oc2c1)CCC3`, for which the IC50 in assay [1] was 2 nM. The inhibition entry in assay [2], in assay [3] and in assay [4] was “inactive” in each case.

Turning to `CNC(=O)[C@H](CNC(=O)CCn1c(=O)[nH]c(=O)c2ccccc21)NC(=O)c1cnc2ccccc2c1`, the IC50 in assay [1] stood at 0.8 nM. For the same molecule, the inhibition entry in assay [2], in assay [3] and in assay [4] was “inactive” each time.
